# According to ChEMBL document CHEMBL2177061, “Factors influencing the specificity of inhibitor binding to the human and malaria parasite dihydroorotate dehydrogenases” (J Med Chem, 2012):
# Numbering of substitutions follows the chain as printed.
# Legend:
# [1] = tested on: T1, Dihydroorotate dehydrogenase (quinone), mitochondrial (Plasmodium falciparum (isolate 3D7)), Q08210 [F188Y]; assay: Inhibition of Plasmodium falciparum […] dehydrogenase F188Y mutant expressed in Escherichia coli BL21(DE3) using […] as substrate at 100 uM by DCIP-based colorimetric analysis
# T1 sequence (whole entry): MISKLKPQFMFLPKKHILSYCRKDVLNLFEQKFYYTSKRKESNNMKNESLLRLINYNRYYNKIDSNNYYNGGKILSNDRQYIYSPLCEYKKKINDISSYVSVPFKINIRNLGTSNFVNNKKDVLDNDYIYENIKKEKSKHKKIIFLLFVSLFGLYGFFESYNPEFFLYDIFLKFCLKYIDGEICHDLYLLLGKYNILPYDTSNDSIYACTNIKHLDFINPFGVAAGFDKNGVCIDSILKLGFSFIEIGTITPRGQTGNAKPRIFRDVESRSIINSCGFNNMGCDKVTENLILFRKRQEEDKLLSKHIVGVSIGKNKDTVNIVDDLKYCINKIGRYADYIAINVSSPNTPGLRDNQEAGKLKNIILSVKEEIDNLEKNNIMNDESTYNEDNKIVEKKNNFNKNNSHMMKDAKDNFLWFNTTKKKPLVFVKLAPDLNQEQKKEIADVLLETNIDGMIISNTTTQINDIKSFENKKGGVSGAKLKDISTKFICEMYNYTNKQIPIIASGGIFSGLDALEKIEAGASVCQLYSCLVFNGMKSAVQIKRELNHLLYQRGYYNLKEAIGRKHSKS
# [2] = tested on: T2, Dihydroorotate dehydrogenase (quinone), mitochondrial (Plasmodium falciparum (isolate 3D7)), Q08210 [C276Y]; assay: Inhibition of Plasmodium falciparum […] dehydrogenase C276Y mutant expressed in Escherichia coli BL21(DE3) using […] as substrate at 100 uM by DCIP-based colorimetric analysis
# T2 sequence (whole entry): T1 sequence (whole entry) with Y188F, C276Y
compound,measurement,setting,value
CCc1cc(O)n2nc(SCc3cc(Cl)ccc3Cl)nc2n1,inhibition,[1],< 50%
same,inhibition,[2],< 50%
